Experimental data: ChEMBL document CHEMBL1133831 (Bioorg Med Chem Lett, 2001)

What was measured:
[1] = target: T1, Muscarinic acetylcholine receptor M1 (Homo sapiens, UniProt P11229); assay: Ability to displace [3H]N-methylscopolamine from Muscarinic acetylcholine receptor M1 expressed in CHO cells.; type: cell-based
T1 sequence (P11229 whole entry): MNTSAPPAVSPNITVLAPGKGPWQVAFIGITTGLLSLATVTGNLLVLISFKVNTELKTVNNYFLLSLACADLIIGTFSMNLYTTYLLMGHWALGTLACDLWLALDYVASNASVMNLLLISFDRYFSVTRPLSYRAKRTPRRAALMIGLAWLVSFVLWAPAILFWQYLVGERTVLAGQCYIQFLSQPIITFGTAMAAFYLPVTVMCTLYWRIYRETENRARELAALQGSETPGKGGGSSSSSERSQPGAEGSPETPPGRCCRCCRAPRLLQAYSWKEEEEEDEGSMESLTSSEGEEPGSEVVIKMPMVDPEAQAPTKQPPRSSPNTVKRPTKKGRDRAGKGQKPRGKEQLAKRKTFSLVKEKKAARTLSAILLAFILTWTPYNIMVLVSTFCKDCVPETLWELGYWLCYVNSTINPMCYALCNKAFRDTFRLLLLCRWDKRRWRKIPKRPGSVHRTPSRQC

[2] = target: T1, Muscarinic acetylcholine receptor M1; assay: Ability to displace [3H]oxotremorine from Muscarinic acetylcholine receptor M1 expressed in CHO cells.; type: cell-based

Row | SMILES | IC50 [1] [µM] | IC50 [2] [µM]
1 | N#Cc1cc(CO/N=C/C2CN3CCC2CC3)on1 (centres undefined) | 133 | 0.341
2 | Clc1cc(CO/N=C/C2CN3CCC2CC3)on1 (centres undefined) | 23.5 | 0.795
3 | N#Cc1cc(CO/N=C/C2CN3CCC2C3)on1 (centres undefined) | 189 | 1.86
4 | N#Cc1cc(CO/N=C2\CN3CCC2C3)on1 (centres undefined) | 32.5 | 0.082
5 | Clc1cc(CO/N=C2\CN3CCC2C3)on1 (centres undefined) | 36.3 | 0.023
6 | COc1cc(CO/N=C2\CN3CCC2C3)on1 (centres undefined) | 40.5 | 0.131
7 | Brc1cc(CO/N=C2\CN3CCC2CC3)on1 | 11.5 | 0.072
8 | COc1cc(CO/N=C/C2CN3CCC2C3)on1 (centres undefined) | 16.7 | 0.287
9 | COc1cc(CO/N=C2\CN3CCC2CC3)on1 | 35.6 | 0.362
10 | Clc1cc(CO/N=C/C2CN3CCC2C3)on1 (centres undefined) | 14.9 | 0.044
11 | COc1cc(CO/N=C/C2CN3CCC2CC3)on1 (centres undefined) | 29.5 | 1.64
12 | Brc1cc(CO/N=C/C2CN3CCC2CC3)on1 (centres undefined) | 8.4 | 1.22
13 | Clc1cc(CO/N=C2\CN3CCC2CC3)on1 | 13.8 | 0.057
14 | Brc1cc(CO/N=C/C2CN3CCC2C3)on1 (centres undefined) | 17.7 | 0.385
15 | O=C1CCCN1CC#CCN1CCCC1 [OXOTREMORINE] | 27.1 | 0.0023
16 | N#Cc1cc(CO/N=C2\CN3CCC2CC3)on1 | 8.7 | 0.081
17 | Brc1cc(CO/N=C2\CN3CCC2C3)on1 (centres undefined) | 48.8 | 0.079
